This note sets out measurements from PubChem BioAssay (NCI).

Several values for one entry are separate records, joined by “and”; a condition that tells them apart may be missing. Equal values may be shown once.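 Grown in 96-well plates, cells were treated for 48 hours with each compound at five concentrations. Insufficient inhibition: endpoint recorded as highest concentration tested. Abbreviation: GI50, concentration required for 50% inhibition of growth. TGI marks complete inhibition of growth.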 Bounds are passed on as bounds.

Some test systems named below: DMS 114 small cell lung; SNB-78 CNS; HS 578T breast; MDA-MB-435; MDA-N; PC-3 prostate; T-47D breast; DU-145 prostate.
Common to all, as to test: growth of human tumour cells (NCI), 48 h

Regarding `O=C(NCCCCCCCCNC(=O)c1cnc2ccccc2n1)c1cnc2ccccc2n1`, the TGI in the assay on DMS 114 small cell lung and in the assay with SNB-78 CNS was more than 100 µM in each case.
In the case of `N#Cc1cc(C#N)c(Cl)nc1N`, the TGI with HS 578T breast, with MDA-MB-435, in the assay on MDA-N, in the assay on PC-3 prostate and with T-47D breast was more than 10 µM throughout.
On to `CC1CC2C3CC(F)C4=CC(=O)C=CC4(C)C3(F)C(O)CC2(C)C1(O)C(=O)COC(=O)C(C)(C)C` (stereo unspecified), for which the TGI in the assay with DMS 114 small cell lung and in the assay with SNB-78 CNS was more than 100 µM throughout.
Consider `CCC(C)CN1C(=O)NC(C)(Cc2ccccc2)C1=O` (stereo unspecified), for which the TGI with DMS 114 small cell lung and with SNB-78 CNS was more than 100 µM each time.
For the molecule `COC(=O)Cc1cc(OC)c(OC)cc1Br`, the TGI in the assay with DMS 114 small cell lung and in the assay with SNB-78 CNS was more than 100 µM in each case.
Take `CCCCCCCCCCCOC(=S)NC(C)C`: the TGI in the assay with DMS 114 small cell lung turned out to be 36.1 µM; in the assay on SNB-78 CNS, 78.5 µM.
For the molecule `Cc1ccc(C(=O)O/N=C2/CCCC/C2=C\c2ccccc2)cc1`, the TGI in the assay on SNB-78 CNS turned out to be 53.4 µM.
Take `O=[As](O)(O)c1ccc(NCc2ccccc2)cc1`: the TGI with DU-145 prostate, in the assay on HS 578T breast, in the assay with MDA-MB-435, in the assay on MDA-N, in the assay with PC-3 prostate and in the assay on T-47D breast was more than 100 µM throughout.
Turning to `COc1cc(CCc2cccnc2)cc(OC)c1OC`, the TGI in the assay with DMS 114 small cell lung and in the assay on SNB-78 CNS was more than 100 µM each time.
Consider `CCC[CH2][Sn]([CH2]CCC)([O]C(=O)c1c(F)cccc1F)[O]C(=O)c1c(F)cccc1F`, for which, in the assay on DMS 114 small cell lung, the GI50 is 0.214 µM and the TGI is 0.602 µM. Moreover, in the assay with SNB-78 CNS, the GI50 is 0.333 µM and the TGI was 1.47 µM.
Consider `COc1cccc([C@H]2CC(=O)c3cc4c(cc3N2)OCO4)c1`, for which the GI50 was 0.067 µM in the assay with DU-145 prostate, 0.0177 µM in the assay with MDA-MB-435, 0.0287 µM in the assay on MDA-N and 0.0927 µM in the assay on PC-3 prostate. Besides, the TGI is 13.8 µM in the assay on DU-145 prostate; 83.3 µM in the assay with HS 578T breast; 0.044 µM with MDA-MB-435; more than 100 µM in the assay with PC-3 prostate; more than 100 µM with T-47D breast.
For the molecule `N=C(c1ccccc1)N(c1ccccc1)c1ccccc1`, the TGI with SNB-78 CNS was more than 100 µM.
Consider `Cc1c2cnccc2c(C)c2c1c1cc(C3OCCCO3)ccc1n2C`, for which the GI50 is 0.371 µM with DU-145 prostate; 0.416 µM with HS 578T breast; 0.411 µM in the assay on MDA-MB-435; 0.402 µM in the assay with PC-3 prostate; 0.299 µM in the assay with T-47D breast. Besides, the TGI came out at 1.58 µM in the assay with DU-145 prostate; 2.83 µM in the assay with HS 578T breast; 1.55 µM with MDA-MB-435; 2.24 µM in the assay with PC-3 prostate; 3.16 µM in the assay with T-47D breast.
In the case of `O=[N+]([O-])c1ccc(Nc2ccccc2-c2ccccc2)c2nonc12`, the GI50 in the assay with DU-145 prostate was 28.2 µM; with HS 578T breast, 15.2 µM; in the assay with MDA-MB-435, 13.9 µM; with PC-3 prostate it was 13.6 µM; with T-47D breast, 10.5 µM. The TGI is more than 100 µM in the assay on DU-145 prostate; 62.8 µM in the assay with HS 578T breast; 45.9 µM with MDA-MB-435; 66.2 µM in the assay with PC-3 prostate; more than 100 µM with T-47D breast.
Take `COc1ccc(/C(=N/NC(N)=O)C2(O)C(=O)Nc3ccc([N+](=O)[O-])cc32)cc1` (stereo unspecified): the results for the TGI in the assay with DMS 114 small cell lung and with SNB-78 CNS were 47.8 µM and 34.7 µM, respectively.
With `COc1cccc2c1C(=O)c1c(O)c3c(c(O)c1C2=O)CC(O)(C(C)=O)CC3OC1CC(N)C(O)C(C)O1` (stereo unspecified), the GI50 with DU-145 prostate was 0.0208 mg/L; in the assay on HS 578T breast, 0.0481 mg/L; with MDA-MB-435, 0.0894 mg/L; in the assay with MDA-N, 0.156 mg/L; in the assay on PC-3 prostate it was 0.0336 mg/L; in the assay on T-47D breast, 0.0185 mg/L. Further, the TGI was determined as 1.65 mg/L in the assay on DU-145 prostate; 0.421 mg/L in the assay on HS 578T breast; 0.33 mg/L with MDA-MB-435; 0.391 mg/L with MDA-N; 0.545 mg/L in the assay on PC-3 prostate; 0.216 mg/L with T-47D breast.
In the assay on SNB-78 CNS, `CCC1(C)NN=c2s/c(=C/c3ccc(OC)cc3)c(=O)n2N1` (stereo unspecified) displayed a TGI of more than 100 µM.
Turning to `C=C(Cn1c(=O)c2ccccc2c2ccccc21)c1ccc(C(=O)Nc2ccccc2N)cc1`, the GI50 in the assay with DU-145 prostate is more than 45.9 µM; in the assay with HS 578T breast it was 58.2 µM; with MDA-MB-435, 24.2 µM; with PC-3 prostate it was 4.37 µM; in the assay with T-47D breast, 3.86 µM. The TGI with DU-145 prostate was more than 100 µM; in the assay on HS 578T breast it was more than 100 µM; in the assay with MDA-MB-435, more than 100 µM; with PC-3 prostate it was more than 79.4 µM; in the assay with T-47D breast it was more than 69.3 µM.
Regarding `CC(C)=CCN=C(N)N`, the TGI with DU-145 prostate, in the assay on HS 578T breast, with MDA-MB-435, in the assay on MDA-N, in the assay on PC-3 prostate and in the assay with T-47D breast was more than 100 µM each time.
With `CC1=C(C(=O)NCc2ccccc2)C(c2ccc(C3C(C(=O)NCc4ccccc4)=C(C)NC(C)=C3C(=O)NCc3ccccc3)cc2)C(C(=O)NCc2ccccc2)=C(C)N1`, the TGI with DMS 114 small cell lung amounted to 25.9 µM; with SNB-78 CNS, 27.1 µM.
On the same counts, the results for `CC[P+](C)(Cc1ccccc1)c1ccccc1` (stereo unspecified) are more than 100 µM and more than 100 µM.
Turning to `Cc1ccc(C)c(NC(=O)C(=O)CC(=O)C2CCOC2=O)c1` (stereo unspecified), the TGI with DMS 114 small cell lung and in the assay with SNB-78 CNS was more than 100 µM throughout.
Take `Cc1nc2ccc(CN(C)c3ccc(C(=O)N[C@@H](CCC(=O)O)C(=O)O)s3)cc2c(=O)[nH]1`: the TGI in the assay on DU-145 prostate, in the assay on HS 578T breast, with MDA-MB-435, with PC-3 prostate and in the assay with T-47D breast was more than 100 µM throughout.
For the molecule `CCSc1nnc2c(-c3ccccc3)n[nH]c2n1`, the TGI in the assay on DU-145 prostate, with HS 578T breast, in the assay on MDA-MB-435, with MDA-N, in the assay on PC-3 prostate and in the assay on T-47D breast was more than 100 µM throughout.
In the case of `CNC(=O)c1cc(COc2nnc(Nc3ccc(Cl)cc3)c3ccoc23)ccn1`, the GI50 in the assay with DU-145 prostate was 9.43 µM and > 10 µM; in the assay on HS 578T breast it was 2.41 µM and 4.62 µM; in the assay on MDA-MB-435 it was 10.4 µM and > 10 µM; in the assay on PC-3 prostate, 9.39 µM and > 10 µM; with T-47D breast, 2.87 µM and 5.77 µM. For the same molecule, the TGI is 26 µM and > 10 µM with DU-145 prostate; 10.9 µM and > 10 µM with HS 578T breast; 43.9 µM and > 10 µM in the assay on MDA-MB-435; more than 57.7 µM with PC-3 prostate; 12.5 µM and > 10 µM with T-47D breast.
